Assay results taken from article PMC4978508, “Using Carbohydrate Interaction Assays to Reveal Novel Binding Sites in Carbohydrate Active Enzymes” (PLoS ONE, 2016).
Where two headings read alike, the source gives them in different places.

Legend:
Type in all cases: binding
[1] = biological target: T1, GH8-1; endoglucanase from Clostridium thermocellum (Acetivibrio thermocellus, UniProt A3DC29); test: SPR (Biacore T100), enzyme amine-coupled to CM5 chip; conditions: immobilised enzyme; ligand 10-5000 μM; weak, not saturable
T1 construct: gene celA; commercial recombinant (NZYtech), no CBM; amine-coupled to CM5 chip
T1 sequence (A3DC29 33-477): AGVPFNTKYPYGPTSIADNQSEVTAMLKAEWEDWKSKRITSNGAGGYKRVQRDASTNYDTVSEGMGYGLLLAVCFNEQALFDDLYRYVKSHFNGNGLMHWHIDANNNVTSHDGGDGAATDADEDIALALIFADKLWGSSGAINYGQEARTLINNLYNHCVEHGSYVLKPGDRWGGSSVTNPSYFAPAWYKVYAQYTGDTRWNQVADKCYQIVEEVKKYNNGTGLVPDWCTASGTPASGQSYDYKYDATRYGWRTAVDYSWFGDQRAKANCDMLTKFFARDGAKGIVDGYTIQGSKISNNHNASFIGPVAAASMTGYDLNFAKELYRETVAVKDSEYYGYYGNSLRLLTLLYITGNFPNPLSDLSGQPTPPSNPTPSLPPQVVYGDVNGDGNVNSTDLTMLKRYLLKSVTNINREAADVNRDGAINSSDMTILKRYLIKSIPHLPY

[2] = biological target: T2, GH48-1; processive endoglucanase from Clostridium cellulolyticum (Ruminiclostridium cellulolyticum, UniProt P37698); test: as above; conditions: one-site fit; immobilised enzyme
T2 construct: gene celCCF; commercial recombinant (NZYtech), no CBM; amine-coupled to CM5 chip
T2 sequence (P37698 30-650 limits assumed): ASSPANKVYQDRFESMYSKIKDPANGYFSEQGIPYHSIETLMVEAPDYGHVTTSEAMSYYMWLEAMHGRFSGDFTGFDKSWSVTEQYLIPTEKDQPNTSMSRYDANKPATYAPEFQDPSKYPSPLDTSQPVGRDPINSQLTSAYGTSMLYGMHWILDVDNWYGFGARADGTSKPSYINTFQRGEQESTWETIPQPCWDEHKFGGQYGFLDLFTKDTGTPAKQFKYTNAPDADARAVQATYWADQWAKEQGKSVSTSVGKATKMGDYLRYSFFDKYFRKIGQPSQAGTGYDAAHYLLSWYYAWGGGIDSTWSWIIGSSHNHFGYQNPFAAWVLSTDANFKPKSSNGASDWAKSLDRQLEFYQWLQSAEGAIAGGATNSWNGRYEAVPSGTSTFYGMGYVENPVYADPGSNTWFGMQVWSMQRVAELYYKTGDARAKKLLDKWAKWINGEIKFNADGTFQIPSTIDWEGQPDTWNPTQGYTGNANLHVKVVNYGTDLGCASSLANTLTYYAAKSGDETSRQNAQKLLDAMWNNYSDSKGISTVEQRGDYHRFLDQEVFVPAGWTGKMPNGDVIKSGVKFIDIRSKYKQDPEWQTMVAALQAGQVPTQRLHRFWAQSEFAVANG
Source text: SPR (Biacore T100), enzyme amine-coupled to CM5 chip on GH48-1; processive endoglucanase from Clostridium cellulolyticum

[3] = biological target: T3, GH6-1; endoglucanase from Thermobifida fusca (Thermobifida fusca, UniProt P26222); test: as above; conditions: one-site fit; immobilised enzyme
T3 construct: gene celB; gift of David Wilson; amine-coupled to CM5 chip
T3 sequence (P26222 32-322 limits assumed): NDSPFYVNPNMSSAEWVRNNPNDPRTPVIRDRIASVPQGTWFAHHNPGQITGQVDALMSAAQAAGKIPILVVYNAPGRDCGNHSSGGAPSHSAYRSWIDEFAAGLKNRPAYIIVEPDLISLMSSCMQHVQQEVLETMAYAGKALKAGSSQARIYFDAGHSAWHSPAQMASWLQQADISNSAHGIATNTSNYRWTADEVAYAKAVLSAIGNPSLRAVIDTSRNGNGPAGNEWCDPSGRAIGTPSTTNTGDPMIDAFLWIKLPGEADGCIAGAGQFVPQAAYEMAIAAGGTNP
Source text: SPR (Biacore T100), enzyme amine-coupled to CM5 chip on GH6-1; endoglucanase from Thermobifida fusca

[4] = biological target: T1, GH8-1; endoglucanase from Clostridium thermocellum; test: as above; conditions: one-site fit; immobilised enzyme; stoichiometry above 2 (several sites)
Source text: SPR (Biacore T100), enzyme amine-coupled to CM5 chip on GH8-1; endoglucanase from Clostridium thermocellum

[5] = biological target: T4, GH13-6; pig pancreatic α-amylase (Sus scrofa, UniProt P00690); test: SPR (Biacore T100), biotinylated enzyme on streptavidin chip
T4 construct: gene AMY2; native porcine pancreas enzyme from Sigma; biotinylated, on streptavidin chip
T4 sequence (P00690 16-511): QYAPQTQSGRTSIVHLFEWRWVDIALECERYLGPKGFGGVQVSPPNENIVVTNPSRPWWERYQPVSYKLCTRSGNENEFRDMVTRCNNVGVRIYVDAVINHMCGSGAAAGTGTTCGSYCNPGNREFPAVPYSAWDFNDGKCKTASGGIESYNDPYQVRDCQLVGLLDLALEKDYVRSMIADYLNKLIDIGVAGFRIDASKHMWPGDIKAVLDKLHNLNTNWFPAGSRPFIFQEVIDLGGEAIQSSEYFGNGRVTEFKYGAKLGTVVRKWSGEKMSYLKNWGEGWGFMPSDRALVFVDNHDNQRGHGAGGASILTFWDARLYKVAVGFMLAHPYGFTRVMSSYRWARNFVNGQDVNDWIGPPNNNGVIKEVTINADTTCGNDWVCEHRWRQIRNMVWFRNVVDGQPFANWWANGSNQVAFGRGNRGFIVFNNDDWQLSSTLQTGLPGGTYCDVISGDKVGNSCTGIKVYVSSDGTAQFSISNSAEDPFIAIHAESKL
Source text: SPR (Biacore T100), biotinylated enzyme on streptavidin chip on GH13-6; pig pancreatic α-amylase

[6] = biological target: T5, GH13-3; E. coli α-amylase (Escherichia coli, UniProt P26612); test: as above
T5 construct: gene amyA; commercial recombinant (Prozomix); biotinylated, on streptavidin chip; GH13 subfamily 5 implied by homology to Bacillus sp
T5 sequence (P26612 1-495): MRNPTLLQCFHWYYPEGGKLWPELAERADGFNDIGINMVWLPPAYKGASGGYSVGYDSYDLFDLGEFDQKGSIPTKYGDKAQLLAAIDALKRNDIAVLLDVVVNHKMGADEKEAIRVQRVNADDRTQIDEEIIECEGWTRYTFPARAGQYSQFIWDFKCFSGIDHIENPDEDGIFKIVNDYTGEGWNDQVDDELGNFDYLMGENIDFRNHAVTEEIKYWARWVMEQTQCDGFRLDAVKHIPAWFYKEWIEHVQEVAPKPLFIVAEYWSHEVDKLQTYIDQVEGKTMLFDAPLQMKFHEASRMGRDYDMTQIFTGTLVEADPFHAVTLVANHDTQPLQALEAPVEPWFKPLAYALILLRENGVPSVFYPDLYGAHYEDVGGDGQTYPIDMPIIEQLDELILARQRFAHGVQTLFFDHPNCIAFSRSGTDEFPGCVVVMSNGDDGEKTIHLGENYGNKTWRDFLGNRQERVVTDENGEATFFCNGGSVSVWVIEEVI
Source text: SPR (Biacore T100), biotinylated enzyme on streptavidin chip on GH13-3; E. coli α-amylase

[7] = biological target: T6, GH13-5; pullulanase from Bacillus subtilis (Bacillus subtilis, UniProt C0SPA0); test: as above
T6 construct: gene amyX; commercial recombinant (Prozomix); contains CBM48; biotinylated, on streptavidin chip
T6 sequence (C0SPA0 1-718): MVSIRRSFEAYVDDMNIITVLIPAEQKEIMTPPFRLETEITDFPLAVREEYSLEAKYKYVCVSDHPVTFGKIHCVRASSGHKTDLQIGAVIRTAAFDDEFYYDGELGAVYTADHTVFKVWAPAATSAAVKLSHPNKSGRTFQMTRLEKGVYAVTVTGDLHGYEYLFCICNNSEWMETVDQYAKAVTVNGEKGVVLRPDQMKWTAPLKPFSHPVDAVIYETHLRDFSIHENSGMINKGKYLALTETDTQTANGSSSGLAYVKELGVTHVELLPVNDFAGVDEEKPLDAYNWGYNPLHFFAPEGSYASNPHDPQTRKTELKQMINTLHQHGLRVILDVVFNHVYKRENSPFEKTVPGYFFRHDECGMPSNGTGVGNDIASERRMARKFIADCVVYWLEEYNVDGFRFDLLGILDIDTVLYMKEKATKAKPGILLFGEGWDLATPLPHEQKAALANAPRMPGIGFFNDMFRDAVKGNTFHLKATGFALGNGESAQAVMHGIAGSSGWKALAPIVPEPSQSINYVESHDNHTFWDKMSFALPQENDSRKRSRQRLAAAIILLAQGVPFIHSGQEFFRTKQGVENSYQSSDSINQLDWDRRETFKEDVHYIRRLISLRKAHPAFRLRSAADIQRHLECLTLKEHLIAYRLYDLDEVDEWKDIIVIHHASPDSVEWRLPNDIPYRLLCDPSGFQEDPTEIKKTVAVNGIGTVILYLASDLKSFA
Source text: SPR (Biacore T100), biotinylated enzyme on streptavidin chip on GH13-5; pullulanase from Bacillus subtilis

In the case of `OC1OC[C@@H](O[C@@H]2OC[C@@H](O[C@@H]3OC[C@@H](O[C@@H]4OC[C@@H](O)[C@H](O)[C@H]4O)[C@H](O)[C@H]3O)[C@H](O)[C@H]2O)[C@H](O)[C@H]1O` (stereo partly drawn) [xylotetraose], the NS [1] is reported as “GH8-1 interacts weakly with these oligosaccharides”.
For `OC[C@H]1O[C@@H](O[C@H]2[C@H](O)[C@@H](O)[C@H](O[C@H]3[C@H](O)[C@@H](O)[C@H](O[C@H]4[C@H](O)[C@@H](O)[C@H](O[C@H]5[C@H](O)[C@@H](O)C(O)O[C@@H]5CO)O[C@@H]4CO)O[C@@H]3CO)O[C@@H]2CO)[C@H](O)[C@@H](O)[C@@H]1O` (stereo partly drawn) [cellopentaose], the Kd [2] was 2070 ± 780 µM, the Kd [3] was 330 ± 110 µM and the Kd [4] was 860 ± 90 µM.
For `OC[C@H]1O[C@H](O[C@H]2[C@H](O)[C@@H](O)[C@@H](O[C@H]3[C@H](O)[C@@H](O)[C@@H](O[C@H]4[C@H](O)[C@@H](O)[C@@H](O[C@H]5[C@H](O)[C@@H](O)[C@@H](O[C@H]6[C@H](O)[C@@H](O)C(O)O[C@@H]6CO)O[C@@H]5CO)O[C@@H]4CO)O[C@@H]3CO)O[C@@H]2CO)[C@H](O)[C@@H](O)[C@@H]1O` (stereo partly drawn) [maltohexaose], the Kd ([5]; one-site fit, immobilised enzyme, stoichiometry above 1 (several sites)) was 1330 ± 120 µM.
For `OC[C@H]1O[C@@H]2O[C@H]3[C@H](O)[C@@H](O)[C@@H](O[C@H]4[C@H](O)[C@@H](O)[C@@H](O[C@H]5[C@H](O)[C@@H](O)[C@@H](O[C@H]6[C@H](O)[C@@H](O)[C@@H](O[C@H]7[C@H](O)[C@@H](O)[C@@H](O[C@H]8[C@H](O)[C@@H](O)[C@@H](O[C@H]1[C@H](O)[C@H]2O)O[C@@H]8CO)O[C@@H]7CO)O[C@@H]6CO)O[C@@H]5CO)O[C@@H]4CO)O[C@@H]3CO` [β-cyclodextrin], the Kd [6] was 1360 ± 50 µM, the Kd [5] was 870 ± 400 µM and the Kd [7] was 970 ± 130 µM.
`OC[C@H]1O[C@H](O[C@H]2[C@H](O)[C@@H](O)[C@@H](O[C@H]3[C@H](O)[C@@H](O)[C@@H](O[C@H]4[C@H](O)[C@@H](O)C(O)O[C@@H]4CO)O[C@@H]3CO)O[C@@H]2CO)[C@H](O)[C@@H](O)[C@@H]1O` (stereo partly drawn) [maltotetraose] was tested, and the NS [1] was “GH8-1 interacts weakly with these oligosaccharides”.
